Patent publication US20120088753A1, “PYRROLOPYRIMIDINES AND USED AS KINASE INHIBITORS” (MEDICAL RESEARCH COUNCIL TECHNOLOGY, priority 2009, published 2012)

Biological target: T1, TBK1 (Homo sapiens, UniProt Q9UHD2)
T1 construct: All protein kinases were of human origin and encoded full length proteins, unless indicated otherwise; His6; made in house; host or cells: insect Sf21 cells
T1 sequence (Q9UHD2 1-729): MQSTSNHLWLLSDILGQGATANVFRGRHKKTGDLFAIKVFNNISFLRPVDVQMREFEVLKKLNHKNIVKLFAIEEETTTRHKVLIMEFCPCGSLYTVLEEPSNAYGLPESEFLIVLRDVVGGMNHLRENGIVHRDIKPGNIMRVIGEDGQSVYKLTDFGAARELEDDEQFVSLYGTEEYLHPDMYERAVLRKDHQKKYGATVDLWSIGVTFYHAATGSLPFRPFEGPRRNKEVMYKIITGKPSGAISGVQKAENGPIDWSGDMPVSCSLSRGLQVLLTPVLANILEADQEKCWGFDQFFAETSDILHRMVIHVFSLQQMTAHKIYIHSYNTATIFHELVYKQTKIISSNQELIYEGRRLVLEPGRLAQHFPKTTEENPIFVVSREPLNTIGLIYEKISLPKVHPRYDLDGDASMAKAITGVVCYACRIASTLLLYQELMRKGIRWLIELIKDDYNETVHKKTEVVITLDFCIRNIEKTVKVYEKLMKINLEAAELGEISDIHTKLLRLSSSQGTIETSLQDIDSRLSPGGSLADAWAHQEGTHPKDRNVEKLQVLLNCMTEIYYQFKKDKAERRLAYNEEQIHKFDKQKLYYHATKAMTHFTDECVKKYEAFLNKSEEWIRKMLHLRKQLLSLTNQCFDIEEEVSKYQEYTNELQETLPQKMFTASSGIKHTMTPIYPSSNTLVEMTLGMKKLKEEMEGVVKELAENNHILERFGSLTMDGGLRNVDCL
Assay: TBK1 protein kinase assay ([γ-33P]ATP filter-plate, IC50 from 10 concentrations)
Format: biochemical
Settings: 50 μM ATP, peptide substrate 300 μM, 30 min, 21° C.; read-out: Potency score (TBK1 IC50)
Text: All protein kinases were of human origin and encoded full length proteins, unless indicated otherwise. They were either expressed as glutathione S-transferase (GST) fusion proteins in Escherichia Coli or as hexahistidine (His6)-tagged proteins in insect Sf21 cells. GST fusion proteins were purified by affinity chromatography on glutathione-Sepharose, and His6-tagged proteins on nickel/nitriloacetate-agarose. The procedures for expressing some of the protein kinases used herein have been detailed previously.^8,9 The following sections outline the DNA vectors synthesised and the procedures used to express and purifying protein kinases that have not been reported previously.
The following kinases were expressed in Sf21 cells: Aurora B and Aurora C, extra-cellular signal-regulated kinase 8 (ERK8), microtubule affinity regulating kinase 3 (MARK3), protein kinase Bα[118-480][S473D], protein kinase Bβ (PKBβ[120-481][S474D], 3-phosphoinositide-dependent protein kinase-1 [52-556] (PDK1[52-556], IKKε, TBK1,
All assays (25.5 μl) were carried out at room temperature (21° C.) and were linear with respect to time and enzyme concentration under the conditions used. Assays were performed for 30 min using Multidrop Micro reagent dispensers (Thermo Electron Corporation, Waltham, Mass. 02454, USA) in a 96-well format. The concentration of magnesium acetate in the assays was 10 mM and the [γ-33P] ATP (800 cpm/pmol) was used at 5, 20 or 50 μM as indicated, in order to be at or below the Km for ATP for each enzyme. Protein kinases assayed at 5 μM ATP were: ERK1, ERK8, PKBα, MARK3, Aurora C. Protein kinases assayed at 20 μM ATP were: JNK1, PDK1, CHK1, CHK2, CDK2 and Aurora B. Protein kinases assayed at 50 μM ATP were: MNK2, IKKepsilon and TBK1.
The assays were initiated with MgATP, stopped by addition of 5 μl of 0.5 M orthophosphoric acid and spotted on to P81 filterplates using a unifilter harvester (PerkinElmer, Boston, Mass. 02118, USA). The IC50 values of inhibitors were determined after carrying out assays at 10 different concentrations of each compound.
ERK1 and ERK8 were both assayed against myelin basic protein (MBP, 0.33 mg/ml). MARK3 was assayed against the peptide […] (300 μM), MNK2 against the eIF4E protein (0.5 mg/ml). PKBβ was assayed against the peptide GRPRTSSFAEGKK (30 μM). TBK1 were assayed against ([…]) (300 μM). The substrates used for other protein kinases were described previously.^8,9
Unless stated otherwise, enzymes were diluted in 50 mM Tris/HCl pH 7.5, 0.1 mM EGTA, 1 mg/ml BSA, 0.1% (v/v) 2-mercaptoethanol and assayed in 50 mM Tris/HCl pH 7.5, 0.1 mM EGTA, 0.1% (v/v) 2-mercaptoethanol.

| Structure (SMILES) | IC50 [nM] |
| --- | --- |
| CCCC(=O)NCCCn1ccc2cnc(Nc3ccc(N4CCOCC4)nc3)nc21 [Example 26, N-{3-[2-(6-Morpholin-4-yl-pyridin-3-ylamino)-pyrrolo[2,3-d]pyrimidin-7-yl]-propyl}-butyramide] | 100 to 1000 |
| O=C(NCCCn1ccc2cnc(Nc3cccc(F)c3)nc21)C1CCC1 [Example 27, Cyclobutanecarboxylic acid {3-[2-(3-fluoro-phenylamino)-pyrrolo[2,3-d]pyrimidin-7-yl]-propyl}-amide] | < 100 |
| CC(=O)Nc1cccc(Nc2ncc3ccn(CCCNC(=O)C4CCC4)c3n2)c1 [Example 28, Cyclobutanecarboxylic acid {3-[2-(3-acetylamino-phenylamino)-pyrrolo[2,3-d]pyrimidin-7-yl]-propyl}-amide] | < 100 |
| O=C(NCCCn1ccc2cnc(Nc3cccc(N4CCCC4=O)c3)nc21)C1CCC1 [Example 29, Cyclobutanecarboxylic acid (3-{2-[3-(2-oxo-pyrrolidin-1-yl)-phenylamino]-pyrrolo[2,3-d]pyrimidin-7-yl}-propyl)-amide] | 100 to 1000 |
| O=C(NCCCn1ccc2cnc(Nc3ccc(N4CCOCC4)nc3)nc21)C1CCC1 [Example 30, Cyclobutanecarboxylic acid {3-[2-(6-morpholin-4-yl-pyridin-3-ylamino)-pyrrolo[2,3-d]pyrimidin-7-yl]propyl}-amide] | < 100 |
| CN1CCN(c2ccc(Nc3ncc4ccn(CCCNC(=O)C5CCC5)c4n3)cn2)CC1 [Example 31, Cyclobutanecarboxylic acid (3-{2-[6-(4-methyl-piperazin-1-yl)-pyridin-3-ylamino]-pyrrolo[2,3-d]pyrimidin-7-yl}-propyl)-amide] | 100 to 1000 |
| O=C(NCCCn1ccc2cnc(Nc3cccc(F)c3)nc21)C1CCCC1 [Example 32, Cyclopentanecarboxylic acid {3-[2-(3-fluoro-phenylamino)-pyrrolo[2,3-d]pyrimidin-7-yl]-propyl}-amide] | 100 to 1000 |
| CC(=O)Nc1cccc(Nc2ncc3ccn(CCCNC(=O)C4CCCC4)c3n2)c1 [Example 33, Cyclopentanecarboxylic acid {3-[2-(3-acetylamino-phenylamino)-pyrrolo[2,3-d]pyrimidin-7-yl]-propyl}-amide] | < 100 |
| O=C(NCCCn1cc(Cl)c2cnc(Nc3cccc(F)c3)nc21)C1CCC1 [Example 34, Cyclobutanecarboxylic acid {3-[5-chloro-2-(3-fluoro-phenylamino)-pyrrolo[2,3-d]pyrimidin-7-yl]-propyl}-amide] | < 100 |
| O=C(NCCCn1cc(Cl)c2cnc(Nc3ccc(N4CCOCC4)nc3)nc21)C1CCC1 [Example 35, Cyclobutanecarboxylic acid {3-[5-chloro-2-(6-morpholin-4-yl-pyridin-3-ylamino)-pyrrolo[2,3-d]pyrimidin-7-yl]-propyl}-amide] | < 100 |
| O=C(NCCCn1cc(Br)c2cnc(Nc3cccc(F)c3)nc21)C1CCC1 [Example 36, Cyclobutanecarboxylic acid {3-[5-bromo-2-(3-fluoro-phenylamino)-pyrrolo[2,3-d]pyrimidin-7-yl]-propyl}-amide] | < 100 |
| N#Cc1cn(CCCNC(=O)C2CCC2)c2nc(Nc3cccc(F)c3)ncc12 [Example 37, Cyclobutanecarboxylic acid {3-[5-cyano-2-(3-fluoro-phenylamino)-pyrrolo[2,3-d]pyrimidin-7-yl]-propyl}-amide] | 100 to 1000 |
| O=C(NCCCn1cc(Cl)c2cnc(Nc3cccc(F)c3)nc21)c1cccs1 [Example 38, Thiophene-2-carboxylic acid {3-[5-chloro-2-(3-fluoro-phenylamino)-pyrrolo[2,3-d]pyrimidin-7-yl]-propyl}-amide] | 100 to 1000 |
| O=C(NCCCn1ccc2cnc(Nc3ccc(N4CCCC4=O)cc3)nc21)C1CCC1 [Example 39, Cyclobutanecarboxylic acid (3-{2-[4-(2-oxo-pyrrolidin-1-yl)-phenylamino]-pyrrolo[2,3-d]pyrimidin-7-yl}-propyl)-amide] | < 100 |
